Calls of active or inactive are those of the source. No cut-off for these calls is given here.
Columns and labels:
HEK293 [1] = assay: Induction of apoptosis in Wnt-independent human HEK293 cells assessed as necrotic cells at 20 uM incubated for 24 hrs by Annexin V-Alexa Fluor 647/PI staining based flow cytomtery (Rvb=1.82%); format: functional
HEK293 [2] = assay: Induction of apoptosis in Wnt-independent human HEK293 cells assessed as early apoptotic cells at 10 uM incubated for 24 hrs by Annexin V-Alexa Fluor 647/PI staining based flow cytomtery (Rvb=17.4%); format: functional
HCT-116 = assay: Induction of apoptosis in Wnt-dependent human HCT-116 cells assessed as necrotic cells at 10 uM incubated for 24 hrs by Annexin V-Alexa Fluor 647/PI staining based flow cytomtery (Rvb=1.47%); format: functional
CT26 [3] = assay: Induction of apoptosis in Wnt-dependent mouse CT26 cells assessed as late apoptotic cells at 20 uM incubated for 24 hrs by Annexin V-Alexa Fluor 647/PI staining based flow cytomtery (Rvb=9.96%); format: functional
HEK293 [4] = assay: Antiproliferative activity against Wnt-independent human HEK293 cells assessed as cell growth inhibition at 40 uM incubated for 48 hrs by CellTiter-Glo assay; format: functional, cell-based
[5] = Toxicity in BALB/c mouse xenografted with mouse CT26 cells assessed as body weight loss at 30 mg/kg, ip QD and measured upto 9 days; format: organism-based; settings: in vivo, 216 h, time < 9 day
[6] = Toxicity in BALB/c mouse xenografted with mouse CT26 cells assessed as pathological changes in spleen at 30 mg/kg, ip QD by hematoxylin and eosin staining based microscopic analysis; format: organism-based; settings: in vivo
CT26 [7] = assay: Antitumor activity in mouse CT26 cells xenografted in BALB/c mouse assessed as increase in granzyme B-positive CD8+ T cell infiltration into tumor at 30 mg/kg, ip QD by flow cytometry; format: functional, organism-based
CT26 [8] = assay: Antitumor activity in mouse CT26 cells xenografted in BALB/c mouse assessed as increase in Cd8 mRNA expression level in tumor at 30 mg/kg, ip QD by qRT-PCR analysis; format: functional, organism-based
CT26 [9] = settings: Mus musculus, BALB/c, dose 30.0 mg/kg, route ip
Description: In vivo inhibition of Wnt signaling pathway in mouse CT26 cells implanted in BALB/c mouse assessed as reduction in Lgr5 mRNA expression level in tumor at 30 mg/kg, ip QD by qRT-PCR analysis

[10] = molecular target: T1, beta-catenin-B-cell lymphoma 9 protein complex (Homo sapiens, UniProt P35222); assay: Inhibition of beta-catenin/BCL9 protein-protein interaction in Wnt-independent human RKO cells assessed as reduction in Axin2 expression level by qRT-PCR assay; format: cell-based
T1 sequence (P35222 whole entry): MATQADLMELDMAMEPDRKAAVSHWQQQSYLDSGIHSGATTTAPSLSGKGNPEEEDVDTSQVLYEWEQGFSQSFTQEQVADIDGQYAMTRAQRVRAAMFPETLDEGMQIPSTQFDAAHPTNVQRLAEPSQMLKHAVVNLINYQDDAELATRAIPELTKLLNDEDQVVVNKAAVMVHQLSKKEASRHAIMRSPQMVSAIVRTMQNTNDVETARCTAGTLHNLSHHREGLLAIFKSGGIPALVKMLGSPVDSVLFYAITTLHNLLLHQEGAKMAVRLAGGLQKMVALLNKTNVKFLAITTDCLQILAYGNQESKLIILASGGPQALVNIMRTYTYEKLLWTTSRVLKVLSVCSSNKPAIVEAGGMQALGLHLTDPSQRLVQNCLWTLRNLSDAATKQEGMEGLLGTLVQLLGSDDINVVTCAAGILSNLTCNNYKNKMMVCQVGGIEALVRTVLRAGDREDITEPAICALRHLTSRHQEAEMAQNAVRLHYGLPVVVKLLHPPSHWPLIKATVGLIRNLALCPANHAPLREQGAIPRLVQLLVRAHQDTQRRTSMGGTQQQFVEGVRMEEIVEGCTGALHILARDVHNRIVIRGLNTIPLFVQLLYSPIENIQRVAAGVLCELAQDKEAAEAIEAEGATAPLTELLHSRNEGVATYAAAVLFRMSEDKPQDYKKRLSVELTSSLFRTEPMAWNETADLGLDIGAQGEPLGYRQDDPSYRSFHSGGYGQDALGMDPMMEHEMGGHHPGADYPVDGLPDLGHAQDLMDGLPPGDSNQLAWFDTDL
T1 sequence (O00512 whole entry): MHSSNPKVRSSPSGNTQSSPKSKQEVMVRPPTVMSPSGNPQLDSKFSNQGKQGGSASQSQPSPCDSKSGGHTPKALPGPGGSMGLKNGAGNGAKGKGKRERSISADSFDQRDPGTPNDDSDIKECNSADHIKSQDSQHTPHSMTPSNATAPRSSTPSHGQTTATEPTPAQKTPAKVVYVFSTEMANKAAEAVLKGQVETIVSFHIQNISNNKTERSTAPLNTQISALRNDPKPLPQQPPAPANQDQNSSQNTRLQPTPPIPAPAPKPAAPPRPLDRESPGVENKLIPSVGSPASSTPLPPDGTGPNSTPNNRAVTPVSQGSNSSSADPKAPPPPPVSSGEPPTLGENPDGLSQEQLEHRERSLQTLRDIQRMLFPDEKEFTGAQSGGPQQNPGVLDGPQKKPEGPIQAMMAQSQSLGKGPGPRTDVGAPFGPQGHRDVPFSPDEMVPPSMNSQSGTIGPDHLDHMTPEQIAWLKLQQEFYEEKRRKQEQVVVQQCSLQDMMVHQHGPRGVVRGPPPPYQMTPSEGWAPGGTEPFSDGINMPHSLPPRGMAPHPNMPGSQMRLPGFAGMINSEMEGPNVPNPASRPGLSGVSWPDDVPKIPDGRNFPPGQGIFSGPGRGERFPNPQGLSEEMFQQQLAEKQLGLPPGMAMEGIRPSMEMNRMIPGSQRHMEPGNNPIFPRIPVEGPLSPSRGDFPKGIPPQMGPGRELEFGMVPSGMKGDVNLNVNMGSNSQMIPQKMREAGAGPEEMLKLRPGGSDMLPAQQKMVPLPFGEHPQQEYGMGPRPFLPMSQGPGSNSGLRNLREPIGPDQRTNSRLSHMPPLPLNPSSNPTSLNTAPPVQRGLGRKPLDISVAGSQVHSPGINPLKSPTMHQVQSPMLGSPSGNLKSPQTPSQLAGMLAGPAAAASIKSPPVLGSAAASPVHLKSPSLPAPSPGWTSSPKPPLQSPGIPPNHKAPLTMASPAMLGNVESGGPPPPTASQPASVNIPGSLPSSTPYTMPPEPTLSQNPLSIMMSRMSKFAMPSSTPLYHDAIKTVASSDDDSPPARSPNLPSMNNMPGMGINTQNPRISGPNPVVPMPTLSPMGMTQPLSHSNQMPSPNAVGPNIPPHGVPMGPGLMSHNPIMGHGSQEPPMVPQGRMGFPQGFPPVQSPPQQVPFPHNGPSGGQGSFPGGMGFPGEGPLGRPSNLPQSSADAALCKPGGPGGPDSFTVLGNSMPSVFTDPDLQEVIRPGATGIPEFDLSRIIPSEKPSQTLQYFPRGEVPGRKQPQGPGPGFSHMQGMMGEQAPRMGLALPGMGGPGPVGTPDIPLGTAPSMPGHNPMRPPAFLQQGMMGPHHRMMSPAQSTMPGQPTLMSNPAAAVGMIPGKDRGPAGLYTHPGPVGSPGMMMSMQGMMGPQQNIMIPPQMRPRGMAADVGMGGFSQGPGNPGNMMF

Row | IC50 [10] [µM] | SMILES | Activity (HEK293 [1]) [%] | Activity (HEK293 [2]) [%] | Activity (HCT-116) [%] | Activity (CT26 [3]) [%] | Activity (HEK293 [4]) | Activity [5] | Activity [6] | Activity (CT26 [7]) | Activity (CT26 [8]) | inhibition (CT26 [9])
1 |  | CC(C)c1ccc(-c2cccc(S(=O)(=O)N3CCCC(c4cccc(OC(C)(C)C(=O)NS(=O)(=O)c5ccc(C(F)(F)F)cc5)c4)C3)c2)cc1 (stereo unspecified) | 1.69 | 12.1 | 2 | 52.6 | inactive | Non-Toxic | Non-Toxic | Active | Active | Active
2 | 26.3 | O=C1[C@H](Cc2ccc(O)cc2)N2C(=O)CCN(C(=O)NCc3ccccc3)[C@H]2CN1Cc1cccc2ccccc12 |  |  |  |  |  |  |  |  |  | 

Source: ChEMBL document CHEMBL5316313, “Discovery of Novel 3-Phenylpiperidine Derivatives Targeting the β-Catenin/B-Cell Lymphoma 9 Interaction as a Single Agent and in Combination with the Anti-PD-1 Antibody for the Treatment of Colorectal Cancer” (J Med Chem, 2023)
